Results from EP4410284A1, “COMPOUND AND METHOD FOR THE TREATMENT OF ZELLWEGER SPECTRUM DISORDER” (Apteeus, priority 2023, dated 2024).
Like-named read-outs stand apart in the source and are kept apart here.

Key:
[1] = system: GM16513 cells; assay: Catalase import immunofluorescence, high-content screening (% importing cells); format: cell-based, human; details: GM16513 cells, 3 days; for EC50 / Emax: Homo sapiens, 72 h, dose response with 6 concentrations; for EC50: read-out: EC50; for Emax: read-out: Max Efficacy (% Importing cells)
[2] = system: GM16513 cells; format: cell-based; details: 3 days, PI positive cells (dead cells)
[3] = system: PEX405 cells; assay: Catalase import immunofluorescence, high-content screening (% importing cells); format: cell-based, human; details: for Concentration (lower dose leading to the maximum effect) / Importing cells (%): PEX405 (PEX1); for Importing cells (%): at the lower dose leading to the maximum effect (see E12); for % Importing cells: PEX405 cells, 3 days
[4] = system: PEX405 cells; format: cell-based; details: 3 days, PI positive cells (dead cells)
[5] = system: GM 16865; assay: Catalase import immunofluorescence (% importing cells); format: cell-based, human; details: GM 16865 (PEX26); for Importing cells (%): at the lower dose leading to the maximum effect (see E22)
Description: (§1) Primary fibroblasts were seeded at 500-700 cells per well in 384-well plates and grown at 37°C overnight. Cells were treated with test compounds or 0.1% DMSO for 3 days. After 3 days and a wash with PBS, cells were fixed with 4% paraformaldehyde (Electron Microscopy Sciences) in PBS for 20 minutes. After 3 washes with PBS, the cells were permeabilized and blocked with 0.3% Triton X-100, 1% BSA in PBS for 30 minutes at room temperature followed by 3 washes with 1% BSA in PBS. The cells were incubated with a rabbit Catalase polyclonal antibody (#12980 Cell signaling) overnight at 4°C. Following 3 washes with PBS containing 0.1% Tween-20, the cells were incubated for 1 h at room temperature with a conjugated goat anti-rabbit secondary antibody Alexa Fluor 647 (Ab150083-Abcam). The cells were then washed 3 times with PBS and Hoechst 33342 (H3570-ThermoFisher Scientific) + HCS Cellmask Blue (H32720 - ThermoFisher Scientific) staining was performed at 0.1 µg/ml and 0.4 µg/mL respectively for 30 minutes at room temperature. The cells were finally washed 3 times with PBS and fluorescent images were acquired using the INCell Analyzer 6000 imaging platform (GE Healthcare Life Sciences).
(§2) Images analysis was done using Columbus analysis software (PerkinElmer). DAPI channel was used to find nuclei (Hoechst 33342) and cytoplasm (HCS CellMask Blue) and border objects were removed. Cy5 channel (AlexaFluor 647) was used to find spots corresponding to peroxisomes which correctly import catalase. Cells were classified as importing or non-importing cells using a linear classifier method after training with images of wells containing Healthy cells and PEX1 deficient cells. The number of importing or non-importing cells was calculated. Finally, results were expressed as % of importing cells.
(§3) Among the HDAC inhibitors of example 2, 4 were tested on other cells which are PEX1, PEX6 or PEX26 deficient.

[6] = system: GM 17398; assay: as above; format: cell-based, human; details: GM 17398 (PEX26 deficient); for Importing cells (%): at the lower dose leading to the maximum effect (see E24)
Description: as §1, §2, §3

[7] = system: GM11335; assay: as above; format: cell-based, human; details: GM11335 (PEX26); for Importing cells (%): at the lower dose leading to the maximum effect (see E20)
Description: as §1, §2, §3

[8] = system: PEX304; assay: as above; format: cell-based, human; details: PEX304 (PEX1); for Importing cells (%): at the lower dose leading to the maximum effect (see E14)
Description: as §1, §2, §3

[9] = system: PEX506; assay: as above; format: cell-based, human; details: PEX506 (PEX6); for Importing cells (%): at the lower dose leading to the maximum effect (see E16)
Description: as §1, §2, §3

[10] = system: PEX607; assay: as above; format: cell-based, human; details: PEX607 (PEX6); for Importing cells (%): at the lower dose leading to the maximum effect (see E18)
Description: as §1, §2, §3

| Compound | % PI+ cells ([2]; 1.3 µM) [%] | % PI+ cells ([2]; 10 µM) [%] | % PI+ cells ([4]; 1.3 µM) [%] | % PI+ cells ([4]; 10 µM) [%] | % Importing cells ([1]; 1.3 µM) [%] | % Importing cells ([1]; 10 µM) [%] | Emax [1] [%] | % Importing cells ([3]; 1.3 µM) [%] | % Importing cells ([3]; 10 µM) [%] | also measured |
| --- | --- | --- | --- | --- | --- | --- | --- | --- | --- | --- |
| O=C(CCCCCCNC(=O)c1cnc(N(c2ccccc2)c2ccccc2)nc1)NO [Ricolinostat] | 2 | 5 | 1 | 1 | 30 | 89 | 96 | 4 | 35 | EC50 [1]: 2760 nM; Concentration (lower dose leading to the maximum effect) [3]: 10 µM; Importing cells (%) [3]: 27%; Concentration (lower dose leading to the maximum effect) [5]: 10 µM; Importing cells (%) [5]: 20%; Concentration (lower dose leading to the maximum effect) [6]: 30 µM; Importing cells (%) [6]: 0%; Concentration (lower dose leading to the maximum effect) [7]: 10 µM; Importing cells (%) [7]: 18%; Concentration (lower dose leading to the maximum effect) [8]: 10 µM; Importing cells (%) [8]: 5%; Concentration (lower dose leading to the maximum effect) [9]: 0.33 µM; Importing cells (%) [9]: 55%; Concentration (lower dose leading to the maximum effect) [10]: 3 µM; Importing cells (%) [10]: 40% |
| Nc1cc(F)ccc1NC(=O)c1ccc(CNC(=O)/C=C/c2cccnc2)cc1 [Tucidinostat] | 1 | 4 | 0 | 2 | 43 | 64 | 70 | 14 | 28 | EC50 [1]: 1500 nM |
| CCCCNNC(=O)c1ccc(Br)cc1 [UF010] | 1 | 1 | 0 | 1 | 12 | 16 | – | 3 | 2 | – |
| ACY-1083 | 2 | 1 | 1 | 1 | 17 | 42 | – | 5 | 4 | – |

Second part, led by results:

| % PI+ cells ([2]; 1.3 µM) [%] | % PI+ cells ([2]; 10 µM) [%] | % PI+ cells ([4]; 1.3 µM) [%] | % PI+ cells ([4]; 10 µM) [%] | Compound | % Importing cells ([1]; 1.3 µM) [%] | % Importing cells ([1]; 10 µM) [%] | Emax [1] [%] | % Importing cells ([3]; 1.3 µM) [%] | % Importing cells ([3]; 10 µM) [%] | also measured |
| --- | --- | --- | --- | --- | --- | --- | --- | --- | --- | --- |
| 1 | 1 | 1 | 1 | CN1CCc2c(c3ccccc3n2Cc2ccc(C(=O)NO)cc2)C1 [Tubastatin A] | 26 | 32 | – | 5 | 6 | – |
| 2 | 9 | 1 | 9 | O=C(CCCCCCC(=O)Nc1ccccc1)NO [Vorinostat] | 35 | 96 | 90 | 13 | 16 | Concentration (lower dose leading to the maximum effect) [3]: 10 µM; Importing cells (%) [3]: 16%; Concentration (lower dose leading to the maximum effect) [5]: 3 µM; Importing cells (%) [5]: 27%; Concentration (lower dose leading to the maximum effect) [6]: 30 µM; Importing cells (%) [6]: 2%; Concentration (lower dose leading to the maximum effect) [7]: 3 µM; Importing cells (%) [7]: 25%; Concentration (lower dose leading to the maximum effect) [8]: 3 µM; Importing cells (%) [8]: 8%; Concentration (lower dose leading to the maximum effect) [9]: 0.33 µM; Importing cells (%) [9]: 57%; Concentration (lower dose leading to the maximum effect) [10]: 3 µM; Importing cells (%) [10]: 48% |
| 14 | 24 | 8 | 40 | HDACs/mTOR Inhibitor 1 | 77 | 96 | – | 9 | 33 | – |
